In patent US20140187594A1, “DIPHENYL ETHER COMPOUNDS FOR THE TREATMENT OF LIVER, LUNG DISORDERS, DIABETIC COMPLICATIONS AND CARDIOVASCULAR DISEASES” (ORCHID CHEMICALS AND PHARMACEUTICALS LTD, priority 2010, published 2014):

Legend:
TNF-α [1] = assay: LPS induced TNF-α level in NAFLD/NASH mice; type: in vivo; conditions: 100 mg/kg orally 28 days, LPS 500 μg/animal i.p., FIG. 28
Excerpt: To develop NAFLD/NASH model, the same protocol was followed as mentioned in Experiment-2. After induction, animals were further grouped as follows. Animals fed normal chow diet (n=10) served as a normal control (Group I) and animals fed HFD and HFL were further divided into two groups as disease control (Group II) (n=10) and treatment group (Group III) (n=9). Duration of the treatment was 28 days. During this period Group I and Group II animals were received water as vehicle and Group III animals were treated with compound of formula (A) 100 mg/kg orally. On 27th day, animals were kept for 12 hours fasting and on 28th day, after 60 minutes of treatment, animals were challenged with LPS (500 μg/animal) by intraperitoneal route. Then after 90 minutes of LPS challenge, blood collection was carried out, plasma and serum were separated and stored at −80° C. in deep freezer for further analysis. Following blood collection, animals were sacrificed; liver, inguinal and epididymal fats were collected and weighed.
(§1) The parameters like Glucose, ALT, AST, TC, TG (Clinical chemistry analyzer Erba XL 300), insulin (Linco®-CA, Product code: EZRMI-13K) and TNFα (GE Healthcare, Amersham, UK. Product code: RPN2718) were measured using commercially available kits. NEFA was measured in serum using commercially available NEFA C kit (Product code No: 279-75401, Wako pure chemical industries ltd., Japan).

TNF-α [2] = assay: LPS induced serum TNF-α in vivo; design: species or system mice; conditions: 50 mg/kg/day oral, 10 days, LPS 400 μg/kg IP, FIG. 39
Excerpt: Based on the results obtained in the in-vitro studies, it can be concluded that Compounds A, B and C are moderately potent inhibitors of Aldose Reductase. […] At the end of the assay, cell lysates were probed with anti iNOS antibody. Compound of formula (A) inhibits the iNOS production in these cells (FIG. 38). […] Since iNOS is implicated in the pathology of diabetic complications, it is anticipated that Compound of formula (A) will have a protective effect in the development of neovascularization contributed by elevated iNOS. Inhibits LPS induced TNF-α and IL-6 Inhibition In Vivo: This study was undertaken when the mice are at 10-11 weeks in age. On Day 0 their body weights were measured and they were assigned to two groups of 6 mice each to get similar average group body weights. They were orally administered with either vehicle (deionized water, Group 1) or Compound of formula (A) (50 mg/kg; Group 2) daily between 9:30 and 10:30 AM for 10 days. The body weights were measured on day 3, 7 and 10 of the study before administration of vehicle or drug. On Day 10, the mice were administered LPS at 400 μg/kg, IP. After 1 hour they were orally administered with either vehicle or Compound of formula (A). […]
Serum TNF-α concentration for each group of mice is determined using the Quantikine. […] The optical density of each well was read at 450 nm using the Microplate Reader (FIG. 39).

HC-HF diet fed Hamsters = assay: HC-HF diet fed dyslipidemic hamsters; type: in vivo, Golden Syrian hamsters; conditions: 28 days
Procedure: Dyslipidemia in hamsters were developed by feeding supranutritional diet with fructose liquid (10%) which simulates features of dyslipidemia in human. These features were treated as mentioned below. Thirty male Golden Syrian hamsters aged 14-16 weeks, body weight ranges between 100-160 g were used for this study. Animals were divided into two groups. First group (n=7) was treated as a normal control and was fed with chow feed (Nutri Lab® Rodent, Tetragon Chemie Pvt. Ltd., Bangalore) and the second group (n=23) was fed with HC-HF diet (in-house made), the composition of which were Corn oil 11.50%, Coconut oil 11.50%, Cholesterol 0.50%, Sodium cholate 0.25% and Nutri Lab® feed 76.25% and animals were provided with 10% fructose in the drinking water. […] During this period, animal body weight was recorded daily. […]
The dyslipidemic model was developed in the protocol as mentioned in experimental 4. […] During this period, animal body weight was recorded daily. […]
as §1

Structure (SMILES): COC(=O)[C@@H](N)Cc1ccc(Oc2ccc(CC3SC(=O)NC3=O)cc2)cc1 (stereo partly drawn) [Compound of formula (A), Methyl(2S)-2-amino-3-(4-{4-[(2,4-dioxo-1,3-thiazolidin-5-yl)methyl]phenoxy}phenyl)propanoate]
- TNF-α levels (TNF-α [1]): reduction
- Serum TNF-α level (TNF-α [2]): reduction in TNF-α
- NEFA (HC-HF diet fed Hamsters; 30 and 100 mg/kg p.o., FIG. 15): significant reduction
- plasma TG (HC-HF diet fed Hamsters; (A) 30 and 100 mg/kg, disodium salt of (C) 10 and 30 mg/kg p.o., FIGS. 14 & 29): significant reduction
